From publication PMC11274987, “Synthesis of Chiral Acyclic Pyrimidine Nucleoside Analogues from DHAP-Dependent Aldolases” (Biomolecules, 2024)

Assays:
TmRhu-1PA = target: T1, TmRhu-1PA (Thermotoga maritima, UniProt Q9X0G1); assay: aldol addition, HPLC and NMR of products; assay type: biochemical; settings: acceptor; co-substrate DHAP; 20 mM phosphate pH 6.8, 45 °C
T1 construct: gene TM_1072; recombinant, cloned, expressed and purified as in earlier work (heat step at 80 °C, cobalt salts present)
T1 sequence (Q9X0G1 1-236): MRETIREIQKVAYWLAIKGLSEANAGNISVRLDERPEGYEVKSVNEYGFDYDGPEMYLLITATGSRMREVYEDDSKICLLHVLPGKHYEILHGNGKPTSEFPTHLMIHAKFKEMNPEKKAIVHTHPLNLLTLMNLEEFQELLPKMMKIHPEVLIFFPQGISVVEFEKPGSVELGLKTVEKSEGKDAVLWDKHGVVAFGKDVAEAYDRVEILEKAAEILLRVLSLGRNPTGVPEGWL

RAMA = target: T2, RAMA (Oryctolagus cuniculus, UniProt P00883); assay: aldol addition, HPLC and NMR of products; assay type: biochemical; settings: acceptor; co-substrate DHAP; 20 mM phosphate pH 6.8, 30 °C
T2 construct: gene ALDOA; commercial native enzyme from rabbit muscle (Sigma-Aldrich)
T2 sequence (P00883 2-364): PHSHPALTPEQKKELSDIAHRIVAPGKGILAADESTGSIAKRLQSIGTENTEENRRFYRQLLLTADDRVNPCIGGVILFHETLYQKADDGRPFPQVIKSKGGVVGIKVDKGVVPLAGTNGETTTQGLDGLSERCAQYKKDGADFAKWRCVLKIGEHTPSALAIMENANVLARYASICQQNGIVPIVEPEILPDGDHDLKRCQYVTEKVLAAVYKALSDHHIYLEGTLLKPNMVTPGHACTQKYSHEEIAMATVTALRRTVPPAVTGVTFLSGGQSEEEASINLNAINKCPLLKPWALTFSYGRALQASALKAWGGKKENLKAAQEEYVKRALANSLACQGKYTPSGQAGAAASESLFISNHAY

SMILES	aldol addition, HPLC and NMR of products (TmRhu-1PA)	aldol addition, HPLC and NMR of products (RAMA)
Cc1cn(CC=O)c(=O)[nH]c1=O [1a, thyminyl acetaldehyde]	biotransformation with the thymine derivative (1a) and TmRhu-1PA as a biocatalyst	–
Nc1ccn(CC=O)c(=O)n1 [1b, cytosyl acetaldehyde]	–	A similar reaction profile was observed when the cytosine derivative
